Results as given in patent US20230015478A1, “GLP-1 RECEPTOR AGONISTS HAVING IMPROVED PHARMACOLOGICAL AND DRUG DELIVERY PROPERTIES” (priority 2021, published 2023).
Like-named read-outs stand apart in the source and are kept apart here. Each block holds one molecule with its values, some of them ahead of it. Square brackets hold non-standard residues; d marks the D form. Peptide text beside a SMILES is read from it. Phe(3,4,5-F3) = N[C@@H](Cc1cc(F)c(F)c(F)c1)C(=O)O; Bip = N[C@@H](Cc1ccc(-c2ccccc2)cc1)C(=O)O; αMePhe(2-F) = C[C@](N)(Cc1ccccc1F)C(=O)O; Phe(2-Cl) = N[C@@H](Cc1ccccc1Cl)C(=O)O; Phe(2-F) = N[C@@H](Cc1ccccc1F)C(=O)O; hTyr = N[C@@H](CCc1ccc(O)cc1)C(=O)O; hPhe = N[C@@H](CCc1ccccc1)C(=O)O; αMeF = C[C@](N)(Cc1ccccc1)C(=O)O; αMeP = C[C@@]1(C(=O)O)CCCN1; AEEA = NCCOCCOCC(=O)O; Aib = CC(C)(N)C(=O)O

Target: T1, hGLP1 receptor (Homo sapiens, UniProt P43220)
T1 construct: expressed in transfected cells; host or cells: HEK (human embryonic kidney) cells co-expressing hGLP1 receptor and CRE-Luciferase
T1 sequence (P43220 24-463): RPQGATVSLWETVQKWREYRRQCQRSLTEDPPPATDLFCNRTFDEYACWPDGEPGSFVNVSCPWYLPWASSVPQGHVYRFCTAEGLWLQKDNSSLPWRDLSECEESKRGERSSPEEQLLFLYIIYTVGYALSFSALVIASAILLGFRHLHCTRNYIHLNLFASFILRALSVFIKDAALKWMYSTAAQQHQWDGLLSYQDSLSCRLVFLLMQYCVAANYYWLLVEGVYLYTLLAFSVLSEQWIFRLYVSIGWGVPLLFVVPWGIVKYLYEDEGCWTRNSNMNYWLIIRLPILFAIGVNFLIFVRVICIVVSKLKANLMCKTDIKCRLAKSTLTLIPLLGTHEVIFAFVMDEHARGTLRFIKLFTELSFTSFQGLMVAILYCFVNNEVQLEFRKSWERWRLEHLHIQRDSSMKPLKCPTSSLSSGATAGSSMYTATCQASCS
Experiment: cAMP HTRF agonist assay in HEK cells co-expressing hGLP1 receptor and CRE-Luciferase
Format: cell-based
Procedure: Human embryonic kidney cells (HEK) co-expressing the hGLP1 receptor and CRE-Luciferase construct were used to determine agonist potency in this assay. The cells were thawed briefly at 37° C., transferred to a sterile tube and re-suspended in complete media at 37° C. Cells were centrifuged at 1000 rpm for 5 minutes and cells collected; cells were re-suspended in assay buffer consisting of DPBS (GIBCO) with 500 μM of the phosphodiesterase inhibitor IBMX. […] The optimal cell density was determined to be 1000 cells/well; cells were added to wells in 384-well plates containing appropriate pre-prepared dilutions of compounds (test peptides or reference compound exendin-4), sealed and incubated with CO2 for 30 min. Test peptide solutions were diluted from 10 mM stock solutions; for most peptides an initial run was performed in duplicate from a maximal concentration of 1.0 μM, with 11 concentrations tested for each peptide using serial 1:3 dilution from this maximal concentration. […] The agonist assay was a homogeneous time-resolved fluorescence (HTRF) assay (Cisbio).
Following incubation of the cells for 30 minutes with test or reference peptides, 5 μL of the cAMP acceptor cAMP-d2, prepared previously as a working solution from frozen stock (1:20 dilution), was added to each well of the assay plate, along with 5 μL of anti-cAMP antibody-cryptate working solution (diluted 1:20 from frozen stock). The wells were incubated for 1 hour at room temperature, and fluorescence was then read at 665 and 615 nm with an Envision reader with TRF laser. Data were saved and analyzed using Prism software (GraphPad). Concentration-response analysis was performed using 4-parameter logistic fits of the resulting data, and EC50 values obtained for each test and reference compound.

[1] = cAMP EC50, nM (0.1% albumin), Table 1, 0.1% albumin
[2] = cAMP EC50, nM (0.1% albumin), Table 6, 0.1% albumin
[3] = cAMP EC50, nM (0.1% albumin), Table 2, 0.1% albumin
[4] = Table 5, 0% albumin, read-out: cAMP EC50, nM (0% albumin)
[5] = cAMP EC50, nM (0.1% albumin), Table 4, 0.1% albumin

SMILES: C[C@@H](O)[C@H](NC(=O)CNC(=O)C(C)(C)NC(=O)C(C)(C)NC(=O)[C@@H](N)Cc1c[nH]cn1)C(=O)N[C@@](C)(Cc1ccccc1F)C(=O)N[C@H](C(=O)N[C@@H](CO)C(=O)N[C@@H](CC(=O)O)C(=O)N[C@@H](Cc1ccc(-c2ccccc2)cc1)C(=O)N[C@@H](Cc1ccc(-c2ccccc2)cc1)C(N)=O)[C@@H](C)O [3-31, H2N-His-Aib-Aib-Gly-Thr-αMePhe(2-F)-Thr-Ser-Asp-Bip-Bip-C(O)NH2] (H-H[Aib][Aib]GT[αMePhe(2-F)]TSD[Bip][Bip]-NH2)
EC50 (cAMP EC50, nM (0.1% albumin), Table 3, 0.1% albumin): 4.9 nM

SMILES: C[C@@H](O)[C@H](NC(=O)CNC(=O)[C@H](CCC(=O)O)NC(=O)C(C)(C)NC(=O)[C@@H](N)Cc1c[nH]cn1)C(=O)N[C@@H](Cc1c[nH]c2ccccc12)C(=O)N[C@H](C(=O)N[C@@H](CO)C(=O)N[C@@H](CC(=O)O)C(=O)N[C@@H](Cc1ccc(-c2ccccc2)cc1)C(=O)N[C@@H](Cc1ccc(-c2ccccc2)cc1)C(N)=O)[C@@H](C)O [3-14, H2N-His-Aib-Glu-Gly-Thr-Trp-Thr-Ser-Asp-Bip-Bip-C(O)NH2] (H-H[Aib]EGTWTSD[Bip][Bip]-NH2)
EC50 [1]: 67.6 nM

SMILES: C[C@H](N)C(=O)NC(C)(C)C(=O)N[C@@H](CCC(=O)O)C(=O)NCC(=O)N[C@H](C(=O)N[C@@H](Cc1ccccc1F)C(=O)N[C@H](C(=O)N[C@@H](CO)C(=O)N[C@@H](CC(=O)O)C(=O)N[C@@H](Cc1ccc(-c2ccccc2)cc1)C(=O)N[C@@H](Cc1ccc(-c2ccccc2)cc1)C(N)=O)[C@@H](C)O)[C@@H](C)O [3-20, H2N-Ala-Aib-Glu-Gly-Thr-Phe(2-F)-Thr-Ser-Asp-Bip-Bip-C(O)NH2] (H-A[Aib]EGT[Phe(2-F)]TSD[Bip][Bip]-NH2)
EC50 [3]: 66 nM

SMILES: C[C@@H](O)[C@H](NC(=O)CNC(=O)[C@H](CCC(=O)O)NC(=O)C(C)(C)NC(=O)[C@@H](N)Cc1c[nH]cn1)C(=O)NC(C)(C)C(=O)N[C@H](C(=O)N[C@@H](CO)C(=O)N[C@@H](CC(=O)O)C(=O)N[C@@H](Cc1ccc(-c2ccccc2)cc1)C(=O)N[C@@H](Cc1ccc(-c2ccccc2)cc1)C(N)=O)[C@@H](C)O [3-18, H2N-His-Aib-Glu-Gly-Thr-Aib-Thr-Ser-Asp-Bip-Bip-C(O)NH2] (H-H[Aib]EGT[Aib]TSD[Bip][Bip]-NH2)
EC50 [1]: 152 nM

SMILES: C[C@@H](O)[C@H](NC(=O)CNC(=O)[C@H](CCC(=O)O)NC(=O)C(C)(C)NC(=O)[C@@H](N)Cc1c[nH]cn1)C(=O)N[C@@](C)(Cc1ccccc1F)C(=O)N[C@H](C(=O)N[C@@H](CO)C(=O)N[C@@H](CC(=O)O)C(=O)N[C@@H](Cc1ccc(-c2ccccc2)cc1)C(=O)N[C@@H](CCc1ccccc1)C(N)=O)[C@@H](C)O [1-4, H2N-His-Aib-Glu-Gly-Thr-α-MePhe(2-F)-Thr-Ser-Asp-Bip-Hph-C(O)NH2] (H-H[Aib]EGT[αMePhe(2-F)]TSD[Bip][hPhe]-NH2)
EC50 [4]: 11 nM | EC50 [2]: 11 nM

SMILES: C[C@@H](O)[C@H](NC(=O)CNC(=O)[C@H](CCC(=O)O)NC(=O)C(C)(C)NC(=O)[C@@H](N)Cc1c[nH]cn1)C(=O)N[C@@](C)(Cc1ccccc1F)C(=O)N[C@H](C(=O)N[C@@H](CO)C(=O)N[C@@H](CC(=O)O)C(=O)N[C@@H](Cc1ccc(-c2ccccc2)cc1)C(=O)N[C@@H](CCc1ccc(O)cc1)C(N)=O)[C@@H](C)O [4-4, H2N-His-Aib-Glu-Gly-Thr-α-MePhe(2-F)-Thr-Ser-Asp-Bip-Hph(4-OH)-C(O)NH2] (H-H[Aib]EGT[αMePhe(2-F)]TSD[Bip][hTyr]-NH2)
EC50 [4]: 16.6 nM | EC50 [2]: 16.6 nM

SMILES: C[C@H](NC(=O)[C@H](CO)NC(=O)[C@@H](NC(=O)[C@H](Cc1ccccc1F)NC(=O)[C@@H](NC(=O)CNC(=O)[C@H](CCC(=O)O)NC(=O)C(C)(C)NC(=O)[C@@H](N)Cc1c[nH]cn1)[C@@H](C)O)[C@@H](C)O)C(=O)N[C@@H](Cc1ccc(-c2ccccc2)cc1)C(=O)N[C@@H](Cc1ccc(-c2ccccc2)cc1)C(N)=O [3-27, H2N-His-Aib-Glu-Gly-Thr-Phe(2-F)-Thr-Ser-Ala-Bip-Bip-C(O)NH2] (H-H[Aib]EGT[Phe(2-F)]TSA[Bip][Bip]-NH2)
EC50 [3]: 67 nM

SMILES: C[C@@H](O)[C@H](NC(=O)CNC(=O)[C@H](CCC(=O)O)NC(=O)[C@]1(C)CCCN1C(=O)[C@@H](N)Cc1c[nH]cn1)C(=O)N[C@@](C)(Cc1ccccc1)C(=O)N[C@H](C(=O)N[C@@H](CO)C(=O)N[C@@H](CC(=O)O)C(=O)N[C@@H](Cc1ccc(-c2ccccc2)cc1)C(=O)NC(C)(C)C(N)=O)[C@@H](C)O [3-61, H2N-His-α-MePro-Glu-Gly-Thr-α-MePhe-Thr-Ser-Asp-Bip-Aib-C(O)NH2] (H-H[αMeP]EGT[αMeF]TSD[Bip][Aib]-NH2)
EC50 [5]: 8.3 nM

SMILES: C[C@@H](O)[C@H](NC(=O)CNC(=O)[C@H](CCC(=O)O)NC(=O)C(C)(C)NC(=O)[C@@H](N)Cc1c[nH]cn1)C(=O)N[C@@H](Cc1cc(F)c(F)c(F)c1)C(=O)N[C@H](C(=O)N[C@@H](CO)C(=O)N[C@@H](CC(=O)O)C(=O)N[C@@H](Cc1ccc(-c2ccccc2)cc1)C(=O)N[C@@H](Cc1ccc(-c2ccccc2)cc1)C(N)=O)[C@@H](C)O [3-9, H2N-His-Aib-Glu-Gly-Thr-Phe(3,4,5-F)-Thr-Ser-Asp-Bip-Bip-C(O)NH2] (H-H[Aib]EGT[Phe(3,4,5-F3)]TSD[Bip][Bip]-NH2)
EC50 [1]: 44.6 nM

SMILES: C[C@@H](O)[C@H](NC(=O)CNC(=O)[C@H](CCC(=O)O)NC(=O)C(C)(C)NC(=O)[C@@H](N)Cc1c[nH]cn1)C(=O)N[C@@](C)(Cc1ccccc1F)C(=O)N[C@H](C(=O)N[C@@H](CO)C(=O)N[C@@H](CC(=O)O)C(=O)N[C@@H](Cc1ccc(-c2ccccc2)cc1)C(=O)N[C@@H](Cc1ccc(-c2ccccc2)cc1)C(=O)NCCOCCOCC(=O)NCCOCCOCC(=O)NCCOCCOCC(=O)N[C@@H](CCCCN)C(N)=O)[C@@H](C)O [4-57, H2N-His-Aib-Glu-Gly-Thr-α-MePhe(2-F)-Thr-Ser-Asp-Bip-Bip-C(O)NH-RY13] (H-H[Aib]EGT[αMePhe(2-F)]TSD[Bip][Bip][AEEA][AEEA][AEEA]K-NH2)
EC50 [2]: 14 nM

More lines, now with the values ahead:

EC50 [2]: 130 nM
SMILES: C[C@@H](O)[C@H](NC(=O)CNC(=O)[C@H](CCC(=O)O)NC(=O)C(C)(C)NC(=O)[C@@H](N)Cc1c[nH]cn1)C(=O)N[C@@](C)(Cc1ccccc1F)C(=O)N[C@H](C(=O)N[C@@H](CO)C(=O)N[C@@H](CC(=O)O)C(=O)N[C@@H](Cc1ccc(-c2ccccc2)cc1)C(=O)N[C@H](Cc1ccc(O)cc1)C(N)=O)[C@@H](C)O [(D)-4-41, H2N-His-Aib-Glu-Gly-Thr-α-MePhe(2-F)-Thr-Ser-Asp-Bip-D-Tyr-C(O)NH2] (H-H[Aib]EGT[αMePhe(2-F)]TSD[Bip][dY]-NH2)

EC50 [1]: 4.5 nM
SMILES: C[C@@H](O)[C@H](NC(=O)CNC(=O)[C@H](CCC(=O)O)NC(=O)C(C)(C)NC(=O)[C@@H](N)Cc1c[nH]cn1)C(=O)N[C@@H](Cc1ccccc1Cl)C(=O)N[C@H](C(=O)N[C@@H](CO)C(=O)N[C@@H](CC(=O)O)C(=O)N[C@@H](Cc1ccc(-c2ccccc2)cc1)C(=O)N[C@@H](Cc1ccc(-c2ccccc2)cc1)C(N)=O)[C@@H](C)O [3-2, H2N-His-Aib-Glu-Gly-Thr-Phe(2-Cl)-Thr-Ser-Asp-Bip-Bip-C(O)NH2] (H-H[Aib]EGT[Phe(2-Cl)]TSD[Bip][Bip]-NH2)

EC50 [5]: 3.1 nM
SMILES: C[C@@H](O)[C@H](NC(=O)CNC(=O)[C@H](CCC(=O)O)NC(=O)C(C)(C)NC(=O)[C@@H](N)Cc1c[nH]cn1)C(=O)N[C@@](C)(Cc1ccccc1F)C(=O)N[C@@H](CC(N)=O)C(=O)N[C@@H](CO)C(=O)N[C@@H](CC(=O)O)C(=O)N[C@@H](Cc1ccc(-c2ccccc2)cc1)C(=O)N[C@@H](Cc1ccc(-c2ccccc2)cc1)C(N)=O [3-62, H2N-His-Aib-Glu-Gly-Thr-α-MePhe(2-F)-Asn-Ser-Asp-Bip-Bip-C(O)NH2] (H-H[Aib]EGT[αMePhe(2-F)]NSD[Bip][Bip]-NH2)

EC50 [1]: 0.32 nM
SMILES: C[C@@H](O)[C@H](NC(=O)CNC(=O)[C@H](CCC(=O)O)NC(=O)C(C)(C)NC(=O)[C@@H](N)Cc1c[nH]cn1)C(=O)N[C@@H](Cc1ccccc1F)C(=O)N[C@H](C(=O)N[C@@H](CO)C(=O)N[C@@H](CC(=O)O)C(=O)N[C@@H](Cc1ccc(-c2ccccc2)cc1)C(=O)N[C@@H](Cc1ccc(-c2ccccc2)cc1)C(N)=O)[C@@H](C)O [3-1, H2N-His-Aib-Glu-Gly-Thr-Phe(2-F)-Thr-Ser-Asp-Bip-Bip-C(O)NH2] (H-H[Aib]EGT[Phe(2-F)]TSD[Bip][Bip]-NH2)

EC50 [5]: 6.4 nM
SMILES: CC(C)C[C@H](NC(=O)[C@@H](N)Cc1c[nH]cn1)C(=O)NC(C)(C)C(=O)N[C@@H](CC(=O)O)C(=O)NCC(=O)N[C@H](C(=O)N[C@@](C)(Cc1ccccc1F)C(=O)N[C@H](C(=O)N[C@@H](CO)C(=O)N[C@@H](CC(=O)O)C(=O)N[C@@H](Cc1ccc(-c2ccccc2)cc1)C(=O)N[C@@H](Cc1ccc(-c2ccccc2)cc1)C(N)=O)[C@@H](C)O)[C@@H](C)O [2-9, H2N-His-Leu-Aib-Asp-Gly-Thr-α-MePhe(2-F)-Thr-Ser-Asp-Bip-Bip-C(O)NH2] (H-HL[Aib]DGT[αMePhe(2-F)]TSD[Bip][Bip]-NH2)
